Test results published in US20020137929A1, “1 - (3-heterocyclylphenyl) isothiourea, -isourea, -guanidine and -amidine herbicidal agents” (Intellectual Property Department, BASF Aktiengesellschaft, priority 1998, published 2002).

Tests used:
ABUTH (Velvetleaf) [1] = experiment: Postemergence herbicidal evaluation; type: in vivo, Abutilon theophrasti
Procedure, shortened: (§1)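 Herbicidal effect was judged by eye on a 0–9 scale covering stand, vigor, deformity, size and chlorosis, compared with controls, four to five weeks after seedlings about two weeks old were sprayed (40 psi, ~0.0156–0.500 kg/ha).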

[2] = system: CHEAL (Lambsquarters, Common); experiment: Postemergence herbicidal evaluation; type: in vivo, Chenopodium album
Procedure, shortened: as §1

[3] = system: IPOHE (Morningglory, Ivyleaf); experiment: Postemergence herbicidal evaluation; type: in vivo, Ipomoea hederacea
Procedure, shortened: as §1

ECHCG (Barnyardgrass) [4] = experiment: Postemergence herbicidal evaluation; type: in vivo, Echinochloa crus-galli
Procedure, shortened: as §1

SETVI (Foxtail, Green) = experiment: Postemergence herbicidal evaluation; type: in vivo, Setaria viridis
Procedure, shortened: as §1

ORYSAT (Rice, Tebonnet) = experiment: Postemergence herbicidal evaluation; type: in vivo, Oryza sativa, (L.) Tebonnet
Procedure, shortened: as §1

ZEAMX (Corn, Field) [5] = experiment: Postemergence herbicidal evaluation; type: in vivo, Zea mays
Procedure, shortened: as §1

ABUTH (Velvetleaf) [6] = experiment: Preemergence herbicidal evaluation; type: in vivo, Abutilon theophrasti; conditions: rated 4-5 weeks after treatment
Procedure, shortened: (§2)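 Herbicidal effect scored visually, 0-9, at 4 to 5 weeks against a control; compound applied preemergence by aqueous acetone spray to seeded soil at about 0.0156 to 0.500 kg/ha.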

CASOB (Sicklepod) = experiment: Preemergence herbicidal evaluation; type: in vivo, Cassia obtusifolia; conditions: rated 4-5 weeks after treatment
Procedure, shortened: as §2

[7] = system: CHEAL (Lambsquarters, Common); experiment: Preemergence herbicidal evaluation; type: in vivo, Chenopodium album; conditions: rated 4-5 weeks after treatment
Procedure, shortened: as §2

[8] = system: IPOHE (Morningglory, Ivyleaf); experiment: Preemergence herbicidal evaluation; type: in vivo, Ipomoea hederacea; conditions: rated 4-5 weeks after treatment
Procedure, shortened: as §2

ECHCG (Barnyardgrass) [9] = experiment: Preemergence herbicidal evaluation; type: in vivo, Echinochloa crus-galli; conditions: rated 4-5 weeks after treatment
Procedure, shortened: as §2

[10] = system: GLXMAW (Soybean, Williams); experiment: Preemergence herbicidal evaluation; type: in vivo, Glycine max, (L.) Merr. cv Williams; conditions: rated 4-5 weeks after treatment
Procedure, shortened: as §2

[11] = system: TRZAWR (Wheat, Winter, cv Riband); experiment: Preemergence herbicidal evaluation; type: in vivo, Triticum aestivum; conditions: rated 4-5 weeks after treatment
Procedure, shortened: as §2

ZEAMX (Corn, Field) [12] = experiment: Preemergence herbicidal evaluation; type: in vivo, Zea mays; conditions: rated 4-5 weeks after treatment
Procedure, shortened: as §2

CYPIR (Rice Flatsedge) = experiment: Postemergence weed control under flooded paddy conditions; type: in vivo, Cyperus iria; conditions: postemergence weeds, 3-4 weeks after treatment
Procedure, shortened: (§3)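 Flood-water application, about 0.0313–0.500 kg/ha a.i. in aqueous/acetone 50/50 v/v; water depth 1.5–3 cm throughout. Weeds 3–5 cm, rice 1.5–2.5 leaf. Greenhouse; 0–9 visual rating vs control at 3–4 wk.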

CYPSE (Flatsedge) = experiment: as above; type: in vivo, Cyperus serotinus; conditions: postemergence weeds, 3-4 weeks after treatment
Procedure, shortened: as §3

In the case of `Cn1c(C(F)(F)F)cc(=O)n(-c2cc(N=C3SCC(=O)N3CC(=O)OC(C)(C)C)c(Cl)cc2F)c1=O` [Compound 43, tert-Butyl 2-{{2-chloro-5-[3,6-dihydro-3-methyl-2,6-dioxo-4-(trifluoromethyl)-1(2H)-pyrimidinyl]-4-fluorophenyl}imino}-4-oxo-3-thiazolidineacetate], the “Postemergence herbicidal rating ABUTH” value (ABUTH (Velvetleaf) [1]; Rate 0.0158 kg/ha) is reported as 9.0, the “Postemergence herbicidal rating ABUTH” value (ABUTH (Velvetleaf) [1]; Rate 0.0315 kg/ha) is reported as 9.0 and the “Postemergence herbicidal rating ABUTH” value (ABUTH (Velvetleaf) [1]; Rate 0.0630 kg/ha) is reported as 9.0. For the same compound, the “Postemergence herbicidal rating CHEAL” value ([2]; Rate 0.0158 kg/ha) was 5.0, the “Postemergence herbicidal rating CHEAL” value ([2]; Rate 0.0315 kg/ha) was 9.0 and the “Postemergence herbicidal rating CHEAL” value ([2]; Rate 0.0630 kg/ha) was 9.0. For the same compound, the “Postemergence herbicidal rating IPOHE” value ([3]; Rate 0.0158 kg/ha) was 9.0, the “Postemergence herbicidal rating IPOHE” value ([3]; Rate 0.0315 kg/ha) was 9.0 and the “Postemergence herbicidal rating IPOHE” value ([3]; Rate 0.0630 kg/ha) was 9.0. For the same compound, the “Postemergence herbicidal rating ECHCG” value (ECHCG (Barnyardgrass) [4]; Rate 0.0158 kg/ha) was 0.0, the “Postemergence herbicidal rating ECHCG” value (ECHCG (Barnyardgrass) [4]; Rate 0.0315 kg/ha) was 0.0 and the “Postemergence herbicidal rating ECHCG” value (ECHCG (Barnyardgrass) [4]; Rate 0.0630 kg/ha) was 0.0. For the same compound, the “Postemergence herbicidal rating SETVI” value (SETVI (Foxtail, Green); Rate 0.0158 kg/ha) was 3.0, the “Postemergence herbicidal rating SETVI” value (SETVI (Foxtail, Green); Rate 0.0315 kg/ha) was 3.0 and the “Postemergence herbicidal rating SETVI” value (SETVI (Foxtail, Green); Rate 0.0630 kg/ha) was 8.0. For the same compound, the “Postemergence herbicidal rating ORYSAT” value (ORYSAT (Rice, Tebonnet); Rate 0.0158 kg/ha) was 1.0, the “Postemergence herbicidal rating ORYSAT” value (ORYSAT (Rice, Tebonnet); Rate 0.0315 kg/ha) was 2.0 and the “Postemergence herbicidal rating ORYSAT” value (ORYSAT (Rice, Tebonnet); Rate 0.0630 kg/ha) was 3.0. For the same compound, the “Postemergence herbicidal rating ZEAMX” value (ZEAMX (Corn, Field) [5]; Rate 0.0158 kg/ha) was 4.5, the “Postemergence herbicidal rating ZEAMX” value (ZEAMX (Corn, Field) [5]; Rate 0.0315 kg/ha) was 5.0 and the “Postemergence herbicidal rating ZEAMX” value (ZEAMX (Corn, Field) [5]; Rate 0.0630 kg/ha) was 5.5. The “Preemergence herbicidal rating ABUTH” value (ABUTH (Velvetleaf) [6]; rate 0.0156 kg/ha) was 9.0, the “Preemergence herbicidal rating ABUTH” value (ABUTH (Velvetleaf) [6]; rate 0.0313 kg/ha) was 9.0 and the “Preemergence herbicidal rating ABUTH” value (ABUTH (Velvetleaf) [6]; rate 0.0625 kg/ha) was 9.0. The “Preemergence herbicidal rating ABUTH” value (ABUTH (Velvetleaf) [6]; rate 0.1250 kg/ha) was 9.0, the “Preemergence herbicidal rating ABUTH” value (ABUTH (Velvetleaf) [6]; rate 0.2500 kg/ha) was 9.0 and the “Preemergence herbicidal rating CASOB” value (CASOB (Sicklepod); rate 0.0156 kg/ha) was 0.0. For the same compound, the “Preemergence herbicidal rating CASOB” value (CASOB (Sicklepod); rate 0.0313 kg/ha) was 0.0, the “Preemergence herbicidal rating CASOB” value (CASOB (Sicklepod); rate 0.0625 kg/ha) was 0.0 and the “Preemergence herbicidal rating CASOB” value (CASOB (Sicklepod); rate 0.1250 kg/ha) was 8.0. The “Preemergence herbicidal rating CASOB” value (CASOB (Sicklepod); rate 0.2500 kg/ha) was 9.0, the “Preemergence herbicidal rating CHEAL” value ([7]; rate 0.0156 kg/ha) was 9.0 and the “Preemergence herbicidal rating CHEAL” value ([7]; rate 0.0313 kg/ha) was 9.0. For the same compound, the “Preemergence herbicidal rating CHEAL” value ([7]; rate 0.0625 kg/ha) was 9.0, the “Preemergence herbicidal rating CHEAL” value ([7]; rate 0.1250 kg/ha) was 9.0 and the “Preemergence herbicidal rating CHEAL” value ([7]; rate 0.2500 kg/ha) was 9.0. The “Preemergence herbicidal rating IPOHE” value ([8]; rate 0.0156 kg/ha) was 0.0, the “Preemergence herbicidal rating IPOHE” value ([8]; rate 0.0313 kg/ha) was 0.0 and the “Preemergence herbicidal rating IPOHE” value ([8]; rate 0.0625 kg/ha) was 0.0. For the same compound, the “Preemergence herbicidal rating IPOHE” value ([8]; rate 0.1250 kg/ha) was 2.0, the “Preemergence herbicidal rating IPOHE” value ([8]; rate 0.2500 kg/ha) was 9.0 and the “Preemergence herbicidal rating ECHCG” value (ECHCG (Barnyardgrass) [9]; rate 0.0156 kg/ha) was 0.0. The “Preemergence herbicidal rating ECHCG” value (ECHCG (Barnyardgrass) [9]; rate 0.0313 kg/ha) was 0.0, the “Preemergence herbicidal rating ECHCG” value (ECHCG (Barnyardgrass) [9]; rate 0.0625 kg/ha) was 0.0 and the “Preemergence herbicidal rating ECHCG” value (ECHCG (Barnyardgrass) [9]; rate 0.1250 kg/ha) was 0.0. The “Preemergence herbicidal rating ECHCG” value (ECHCG (Barnyardgrass) [9]; rate 0.2500 kg/ha) was 5.0, the “Preemergence herbicidal rating GLXMAW” value ([10]; rate 0.0156 kg/ha) was 0.0 and the “Preemergence herbicidal rating GLXMAW” value ([10]; rate 0.0313 kg/ha) was 0.0. The “Preemergence herbicidal rating GLXMAW” value ([10]; rate 0.0625 kg/ha) was 0.0, the “Preemergence herbicidal rating GLXMAW” value ([10]; rate 0.1250 kg/ha) was 0.0 and the “Preemergence herbicidal rating GLXMAW” value ([10]; rate 0.2500 kg/ha) was 2.0. The “Preemergence herbicidal rating TRZAWR” value ([11]; rate 0.0156 kg/ha) was 0.0, the “Preemergence herbicidal rating TRZAWR” value ([11]; rate 0.0313 kg/ha) was 0.0 and the “Preemergence herbicidal rating TRZAWR” value ([11]; rate 0.0625 kg/ha) was 0.0. The “Preemergence herbicidal rating TRZAWR” value ([11]; rate 0.1250 kg/ha) was 1.0, the “Preemergence herbicidal rating TRZAWR” value ([11]; rate 0.2500 kg/ha) was 4.0 and the “Preemergence herbicidal rating ZEAMX” value (ZEAMX (Corn, Field) [12]; rate 0.0156 kg/ha) was 0.0. The “Preemergence herbicidal rating ZEAMX” value (ZEAMX (Corn, Field) [12]; rate 0.0313 kg/ha) was 0.0, the “Preemergence herbicidal rating ZEAMX” value (ZEAMX (Corn, Field) [12]; rate 0.0625 kg/ha) was 0.0 and the “Preemergence herbicidal rating ZEAMX” value (ZEAMX (Corn, Field) [12]; rate 0.1250 kg/ha) was 3.0. For the same compound, the “Preemergence herbicidal rating ZEAMX” value (ZEAMX (Corn, Field) [12]; rate 0.2500 kg/ha) was 6.0, the “Herbicidal rating CYPIR” value (CYPIR (Rice Flatsedge); rate 0.0313 kg/ha) was 0.0 and the “Herbicidal rating CYPIR” value (CYPIR (Rice Flatsedge); rate 0.1250 kg/ha) was 4.0. The “Herbicidal rating CYPIR” value (CYPIR (Rice Flatsedge); rate 0.2500 kg/ha) was 5.0, the “Herbicidal rating CYPSE” value (CYPSE (Flatsedge); rate 0.0313 kg/ha) was 5.0 and the “Herbicidal rating CYPSE” value (CYPSE (Flatsedge); rate 0.1250 kg/ha) was 8.0. For the same compound, the “Herbicidal rating CYPSE” value (CYPSE (Flatsedge); rate 0.2500 kg/ha) was 9.0.
